Experimental findings from ChEMBL document CHEMBL5247625, “Discovery and characterization of novel potent BCR-ABL degraders by conjugating allosteric inhibitor” (Eur J Med Chem, 2022) are described below.

The structures appear in SMILES notation. The source made the active and inactive calls. The calls are words filed in the database; no cut-off is given here.

Assay type in all cases: cell-based
Experiment [1] deals with T1, Signal transducer and activator of transcription 5A (Homo sapiens) (UniProt P42229).
T1 sequence (whole entry): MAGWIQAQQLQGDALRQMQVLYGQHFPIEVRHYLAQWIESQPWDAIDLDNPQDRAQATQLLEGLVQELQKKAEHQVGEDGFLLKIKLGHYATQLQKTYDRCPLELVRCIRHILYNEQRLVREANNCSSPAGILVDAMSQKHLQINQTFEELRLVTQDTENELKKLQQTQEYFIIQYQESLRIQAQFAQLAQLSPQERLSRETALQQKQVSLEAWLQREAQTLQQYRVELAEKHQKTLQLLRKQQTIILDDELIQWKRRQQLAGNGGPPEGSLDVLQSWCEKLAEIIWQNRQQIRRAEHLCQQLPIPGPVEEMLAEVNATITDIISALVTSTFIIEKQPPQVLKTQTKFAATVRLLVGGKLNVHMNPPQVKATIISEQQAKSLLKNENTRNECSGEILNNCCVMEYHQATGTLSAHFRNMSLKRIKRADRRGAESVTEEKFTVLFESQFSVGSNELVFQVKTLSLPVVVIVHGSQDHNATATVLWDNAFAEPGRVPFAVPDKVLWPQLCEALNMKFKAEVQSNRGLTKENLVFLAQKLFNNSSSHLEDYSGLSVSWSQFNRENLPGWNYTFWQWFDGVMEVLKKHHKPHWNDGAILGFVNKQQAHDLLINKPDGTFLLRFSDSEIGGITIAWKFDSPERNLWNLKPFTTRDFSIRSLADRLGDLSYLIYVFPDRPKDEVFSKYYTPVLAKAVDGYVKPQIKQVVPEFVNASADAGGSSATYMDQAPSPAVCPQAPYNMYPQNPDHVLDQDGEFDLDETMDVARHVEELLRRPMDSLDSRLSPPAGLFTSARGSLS
Put plainly: Inhibition of STAT5 phosphorylation at Tyr694 residue in human K562 cells at 100 nM incubated for 6 hrs followed by compound washout measured upto 96 hrs by Western blotting analysis.

In experiment [2] the target is Crk-like protein (Homo sapiens) (UniProt P46109). Put plainly: Inhibition of CRKL phosphorylation at Tyr207 residue in human K562 cells at 0.3 to 100 nM incubated for 16 hrs by Western blotting analysis. As to conditions: dose 0.3-100 nM.
The target in experiment [3] is T2, Bcr/Abl fusion protein (Homo sapiens) (UniProt P00519+P11274). Put plainly: Inhibition of BCR-ABL phosphorylation at Tyr245 residue in human K562 cells at 0.3 to 100 nM incubated for 16 hrs by Western blotting analysis. Conditions: dose 0.3-100 nM.
For experiment [4], the target named is Crk-like protein (Homo sapiens) (UniProt P46109). Put plainly: Inhibition of CRKL phosphorylation at Tyr207 residue in human K562 cells at 100 nM incubated for 6 hrs followed by compound washout measured upto 96 hrs by Western blotting analysis.
In experiment [5] the target is T2, Bcr/Abl fusion protein (Homo sapiens). Put plainly: Inhibition of BCR-ABL phosphorylation at Tyr245 residue in human K562 cells at 100 nM incubated for 6 hrs followed by compound washout measured upto 96 hrs by Western blotting analysis. On the technique in general: A western blot detects proteins with antibodies after separation by electrophoresis.
Experiment [6] deals with Protein cereblon/Tyrosine-protein kinase ABL1/Breakpoint cluster region protein (Homo sapiens, UniProt P00519+P11274+Q96SW2). Put plainly: Protac activity at CRBN/BCR-ABL in human K562 cells assessed as increase in BCR-ABL degradation at 100 nM incubated for 6 hrs followed by compound washout measured upto 96 hrs by Western blotting analysis.
The target in experiment [7] is T1, Signal transducer and activator of transcription 5A (Homo sapiens). Put plainly: Inhibition of STAT5 phosphorylation at Tyr694 residue in human K562 cells at 0.3 to 100 nM incubated for 16 hrs by Western blotting analysis. Conditions: dose 0.3-100 nM.

T2 sequence (P00519 whole entry, looked up, the tested form may be a part): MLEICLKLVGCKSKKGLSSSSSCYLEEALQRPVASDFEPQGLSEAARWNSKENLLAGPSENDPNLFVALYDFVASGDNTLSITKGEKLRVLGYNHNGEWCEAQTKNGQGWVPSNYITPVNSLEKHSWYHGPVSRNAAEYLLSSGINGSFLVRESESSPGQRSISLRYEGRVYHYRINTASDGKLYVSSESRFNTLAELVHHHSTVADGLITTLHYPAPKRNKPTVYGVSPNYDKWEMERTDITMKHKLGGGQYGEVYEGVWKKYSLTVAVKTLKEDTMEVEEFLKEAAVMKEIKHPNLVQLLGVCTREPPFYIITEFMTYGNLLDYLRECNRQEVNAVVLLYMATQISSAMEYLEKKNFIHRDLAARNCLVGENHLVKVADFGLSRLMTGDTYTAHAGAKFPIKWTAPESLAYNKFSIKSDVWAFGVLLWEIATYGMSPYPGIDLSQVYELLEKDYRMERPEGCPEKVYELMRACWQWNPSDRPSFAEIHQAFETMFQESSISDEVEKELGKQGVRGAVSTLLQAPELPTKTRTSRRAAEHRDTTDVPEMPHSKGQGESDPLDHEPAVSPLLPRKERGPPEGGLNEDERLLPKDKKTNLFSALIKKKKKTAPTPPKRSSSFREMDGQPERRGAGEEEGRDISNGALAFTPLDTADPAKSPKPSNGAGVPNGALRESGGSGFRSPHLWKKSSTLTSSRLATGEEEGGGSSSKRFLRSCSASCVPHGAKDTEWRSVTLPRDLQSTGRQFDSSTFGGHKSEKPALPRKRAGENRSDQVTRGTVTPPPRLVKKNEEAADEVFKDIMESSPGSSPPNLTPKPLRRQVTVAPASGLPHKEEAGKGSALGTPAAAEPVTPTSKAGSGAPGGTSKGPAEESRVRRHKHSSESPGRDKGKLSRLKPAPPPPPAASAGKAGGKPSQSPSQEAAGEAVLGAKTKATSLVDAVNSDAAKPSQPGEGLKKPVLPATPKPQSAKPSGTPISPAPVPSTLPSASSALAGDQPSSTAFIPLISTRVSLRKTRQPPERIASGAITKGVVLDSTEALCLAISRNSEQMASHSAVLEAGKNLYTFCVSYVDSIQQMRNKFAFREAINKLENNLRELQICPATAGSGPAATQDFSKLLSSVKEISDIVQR
T2 sequence (P11274 whole entry, looked up, the tested form may be a part): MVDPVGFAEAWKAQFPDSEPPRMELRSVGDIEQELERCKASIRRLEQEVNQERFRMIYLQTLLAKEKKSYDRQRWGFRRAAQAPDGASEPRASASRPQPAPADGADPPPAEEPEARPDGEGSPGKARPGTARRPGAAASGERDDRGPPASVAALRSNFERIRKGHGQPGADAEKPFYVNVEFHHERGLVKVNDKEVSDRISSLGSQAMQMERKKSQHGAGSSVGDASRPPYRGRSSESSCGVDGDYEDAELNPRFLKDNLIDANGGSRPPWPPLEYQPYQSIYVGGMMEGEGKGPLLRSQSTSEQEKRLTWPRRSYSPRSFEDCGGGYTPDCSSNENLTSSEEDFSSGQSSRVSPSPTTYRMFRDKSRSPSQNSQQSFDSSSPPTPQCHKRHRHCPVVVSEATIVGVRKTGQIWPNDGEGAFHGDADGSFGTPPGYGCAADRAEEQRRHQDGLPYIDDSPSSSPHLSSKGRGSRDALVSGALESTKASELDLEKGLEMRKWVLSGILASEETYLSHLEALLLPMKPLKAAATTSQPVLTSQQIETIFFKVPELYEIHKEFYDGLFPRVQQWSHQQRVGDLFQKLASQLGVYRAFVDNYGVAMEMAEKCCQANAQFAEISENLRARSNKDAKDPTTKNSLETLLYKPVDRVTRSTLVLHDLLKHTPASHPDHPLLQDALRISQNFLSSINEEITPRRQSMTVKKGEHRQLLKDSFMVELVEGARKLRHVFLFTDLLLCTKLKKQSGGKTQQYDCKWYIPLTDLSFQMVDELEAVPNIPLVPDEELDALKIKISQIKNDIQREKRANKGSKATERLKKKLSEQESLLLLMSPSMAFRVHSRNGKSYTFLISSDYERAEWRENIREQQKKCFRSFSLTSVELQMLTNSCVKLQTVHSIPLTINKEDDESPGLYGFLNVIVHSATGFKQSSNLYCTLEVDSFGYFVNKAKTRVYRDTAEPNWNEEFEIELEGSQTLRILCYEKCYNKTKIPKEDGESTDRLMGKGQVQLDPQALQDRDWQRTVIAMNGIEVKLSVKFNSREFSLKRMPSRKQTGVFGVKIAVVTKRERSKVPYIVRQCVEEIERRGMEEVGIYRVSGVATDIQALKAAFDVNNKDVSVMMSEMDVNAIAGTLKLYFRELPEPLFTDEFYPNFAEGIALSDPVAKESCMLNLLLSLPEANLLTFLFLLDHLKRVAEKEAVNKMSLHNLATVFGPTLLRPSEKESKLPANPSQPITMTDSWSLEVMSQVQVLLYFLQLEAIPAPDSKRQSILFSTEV
Crk-like protein (Homo sapiens), sequence (P46109 whole entry, the tested form may be a part): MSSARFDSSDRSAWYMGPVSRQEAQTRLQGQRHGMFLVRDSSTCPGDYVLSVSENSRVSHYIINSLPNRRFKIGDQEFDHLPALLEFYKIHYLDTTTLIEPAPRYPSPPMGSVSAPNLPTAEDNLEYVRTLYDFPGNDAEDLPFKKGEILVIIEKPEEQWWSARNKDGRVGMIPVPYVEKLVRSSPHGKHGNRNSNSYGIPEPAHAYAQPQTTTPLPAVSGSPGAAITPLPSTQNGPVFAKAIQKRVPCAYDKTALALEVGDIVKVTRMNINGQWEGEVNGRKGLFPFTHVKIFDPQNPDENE
Protein cereblon/Tyrosine-protein kinase ABL1/Breakpoint cluster region protein, sequence (P00519 whole entry, looked up): as the sequence (P00519 whole entry, looked up, the tested form may be a part) above
Protein cereblon/Tyrosine-protein kinase ABL1/Breakpoint cluster region protein, sequence (P11274 whole entry, looked up): as the sequence (P11274 whole entry, looked up, the tested form may be a part) above
Protein cereblon/Tyrosine-protein kinase ABL1/Breakpoint cluster region protein, sequence (Q96SW2 whole entry, looked up): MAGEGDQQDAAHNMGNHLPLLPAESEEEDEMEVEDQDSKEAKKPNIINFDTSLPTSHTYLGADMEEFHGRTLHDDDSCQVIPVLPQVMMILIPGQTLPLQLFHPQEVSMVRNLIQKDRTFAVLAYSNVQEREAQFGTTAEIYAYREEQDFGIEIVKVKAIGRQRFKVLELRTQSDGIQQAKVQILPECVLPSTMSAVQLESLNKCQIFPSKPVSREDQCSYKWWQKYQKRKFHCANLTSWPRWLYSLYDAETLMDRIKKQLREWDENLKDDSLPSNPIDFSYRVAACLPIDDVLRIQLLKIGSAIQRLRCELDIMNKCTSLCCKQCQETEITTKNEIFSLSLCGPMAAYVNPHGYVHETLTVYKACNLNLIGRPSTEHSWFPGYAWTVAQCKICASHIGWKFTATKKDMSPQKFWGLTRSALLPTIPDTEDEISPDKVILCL

For the compound `CN1C(=O)CCC(N2Cc3c(SCCCCCCN4CCN(C5CCN(c6ncc(C(=O)Nc7ccc(OC(F)(F)Cl)cc7)cc6-c6ccn[nH]6)CC5)CC4)cccc3C2=O)C1=O` (configuration not stated), the inhibition entry in experiment [1], in experiment [4] and in experiment [5] was “inactive” each time. For the same compound, the result in experiment [2], in experiment [3] and in experiment [7] was Active. Also, in experiment [6], the outcome was inactive.
